Values joined by “and” are separate entries in the source; they are usually repeats but may differ in a detail not shown here. Equal values may be shown once. Values belong to the compound of their own block, whether it stands above or below them.
Legend:
[1] = cited from earlier work
[2] = Intrinsic permeability in Caco-2 cells with efflux inhibited; settings: human, Caco-2
[3] = CLint in NADPH-supplemented human liver microsomes; settings: human; for CLint scaled at 1 µM: pH 7.4, NADPH_HLM_scaled_CLint,u
Description: (§1) Calculation and scaling of CLint,u was done using the equation below and 45 mg of microsomal protein per gram of liver. HLMCLint,u=ln2/x1/t1/2(min)xmLincubation/mgmicrosomalproteinx45mgmicrosomalprotein/gliverx21gliver/kg/Fuinc

in vitro = settings: human, hepatocytes; for hepatocyte CLint at 1 µM: both; for CLint scaled at 1 µM: HH_scaled_CLint,u
[4] = Free savolitinib in incubation with 150 mg/mL bovine serum albumin; type: in vitro ADME; settings: BSA final 150 mg/mL
[5] = CLint in NADH-supplemented human liver microsomes; settings: human, pH 7.4
Description: as §1

CYP1A2-Cytb5R = target: T1, CYP1A2-Cytb5R (Homo sapiens, UniProt P05177); experiment: Turnover by non-canonical recombinant CYP1A2-Cytb5R; type: in vitro ADME; settings: noncanonical CYP1A2-Cytb5R
T1 construct: purchased BioIVT (custom synthesis) CE00001 (CYP1A2), batch CPD034-1A2-30; host or cells: bactosomes
T1 sequence (P05177 1-516): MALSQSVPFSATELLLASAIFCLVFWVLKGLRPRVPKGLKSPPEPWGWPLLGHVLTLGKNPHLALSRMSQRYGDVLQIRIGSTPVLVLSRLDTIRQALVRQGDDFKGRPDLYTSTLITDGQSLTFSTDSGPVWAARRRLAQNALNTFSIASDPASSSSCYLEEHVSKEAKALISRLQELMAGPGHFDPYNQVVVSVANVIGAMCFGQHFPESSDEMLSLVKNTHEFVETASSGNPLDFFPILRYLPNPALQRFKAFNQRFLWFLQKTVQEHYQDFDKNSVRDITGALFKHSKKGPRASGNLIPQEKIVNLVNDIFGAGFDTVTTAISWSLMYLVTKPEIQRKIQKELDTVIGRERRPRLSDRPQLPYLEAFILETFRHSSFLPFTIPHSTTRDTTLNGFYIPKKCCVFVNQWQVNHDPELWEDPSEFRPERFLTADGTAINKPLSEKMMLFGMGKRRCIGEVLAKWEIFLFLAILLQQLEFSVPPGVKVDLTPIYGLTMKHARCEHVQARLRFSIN
Description: As commercial recombinant human CYPs co-express the individual CYP and reductase with an option to include cytochrome b5. A custom synthesis co-expressing CYP3A4 or CYP1A2 and Cytb5R plus cytochrome b5 was, therefore, ordered from BioIVT and the bactosomes were compared with canonical CYP-POR enzymes plus cytochrome b5.

recombinant CYP3A4-POR = target: T2, recombinant CYP3A4-POR (Homo sapiens, UniProt P08684); experiment: Savolitinib incubation with recombinant CYP3A4-POR Supersomes; type: in vitro ADME; settings: CYP3A4-POR 100 pmol/mL, 1 µM, 1 h (Fig. 2b)
T2 construct: purchased 456202
Description: For detailed comparisons between recombinant CYP1A2 and CYP3A4 (Fig. 2B, C), Supersomes were used (CYP1A2, catalogue number 456203, CYP3A4, catalogue number 456202). […] The concentration of savolitinib metabolites M2 and M4 formed were determined from standard curves obtained by spiking the appropriate concentrations of M2 and M4 into recombinant enzymes (in the absence of NADPH) and processing in the same way as the samples.

[6] = Free fraction in HLM incubation, equilibrium dialysis; type: in vitro ADME, human; settings: for fu_HLM: fraction unbound, measured or estimated by in silico models of Fuinc
[7] = healthy volunteers; cited from earlier work
[8] = LogD pH 7.4, octanol/phosphate buffer; settings: octanol/phosphate buffer, pH 7.4
recombinant human CYP1A2 = target: T3, recombinant human CYP1A2 (Homo sapiens, UniProt P05177); experiment: Recombinant CYP panel, savolitinib CLint; type: in vitro ADME
T3 sequence (P05177 1-516): T1 sequence (P05177 1-516)
Description: (§2) […]
(§3) The clearance of savolitinib was
(§4) The average intrinsic clearance was
(§5) concentrations (final 0.1 µM).

recombinant human CYP2D6 = recombinant human CYP2D6 (Homo sapiens, UniProt P10635); experiment: Recombinant CYP panel, savolitinib CLint; type: in vitro ADME
Description: as §2, §3, §4, §5

recombinant human CYP3A4 = recombinant human CYP3A4 (Homo sapiens, UniProt P08684); experiment: Recombinant CYP panel, savolitinib CLint; type: in vitro ADME
Description: as §2, §3, §4, §5

recombinant human CYP2A6 = target: T4, recombinant human CYP2A6 (Homo sapiens, UniProt P11509); experiment: Recombinant CYP panel, savolitinib CLint; type: in vitro ADME
T4 sequence (P11509 1-494): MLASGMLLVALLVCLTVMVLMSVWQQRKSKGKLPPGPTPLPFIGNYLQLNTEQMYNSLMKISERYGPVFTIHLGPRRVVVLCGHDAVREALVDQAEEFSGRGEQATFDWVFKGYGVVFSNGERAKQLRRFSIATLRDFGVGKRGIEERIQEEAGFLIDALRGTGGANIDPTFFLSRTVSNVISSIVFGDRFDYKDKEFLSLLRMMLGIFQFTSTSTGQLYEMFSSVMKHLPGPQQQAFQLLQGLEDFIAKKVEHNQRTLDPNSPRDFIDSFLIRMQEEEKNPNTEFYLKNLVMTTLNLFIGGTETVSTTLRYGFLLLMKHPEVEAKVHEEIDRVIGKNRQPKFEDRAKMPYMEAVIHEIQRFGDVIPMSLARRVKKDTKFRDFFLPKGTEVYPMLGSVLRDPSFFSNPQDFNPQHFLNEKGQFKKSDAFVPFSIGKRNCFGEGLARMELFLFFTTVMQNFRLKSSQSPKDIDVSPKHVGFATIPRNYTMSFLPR
Description: as §2, §3, §4, §5

recombinant human CYP3A5 = recombinant human CYP3A5 (Homo sapiens, UniProt P20815); experiment: Recombinant CYP panel, savolitinib CLint; type: in vitro ADME
Description: as §2, §3, §4, §5

[9] = target: recombinant human CYP2C19 (Homo sapiens, UniProt P33261); experiment: Recombinant CYP panel, savolitinib CLint; type: in vitro ADME; settings: CYP2C19, inter-system extrapolation factors
Description: as §2, §3, §4, §5

rat hepatocytes = experiment: Free fraction in rat hepatocytes as surrogate for HH, equilibrium dialysis; type: in vitro ADME; settings: fraction unbound, measured or estimated by in silico models of Fuinc
[10] = as above; type: in vitro ADME; settings: rat hepatocytes (surrogate for human hepatocytes); printed as HH; rat hepatocytes used as surrogate
physchem = settings: pH 7.4

T2 sequence (P08684 whole entry): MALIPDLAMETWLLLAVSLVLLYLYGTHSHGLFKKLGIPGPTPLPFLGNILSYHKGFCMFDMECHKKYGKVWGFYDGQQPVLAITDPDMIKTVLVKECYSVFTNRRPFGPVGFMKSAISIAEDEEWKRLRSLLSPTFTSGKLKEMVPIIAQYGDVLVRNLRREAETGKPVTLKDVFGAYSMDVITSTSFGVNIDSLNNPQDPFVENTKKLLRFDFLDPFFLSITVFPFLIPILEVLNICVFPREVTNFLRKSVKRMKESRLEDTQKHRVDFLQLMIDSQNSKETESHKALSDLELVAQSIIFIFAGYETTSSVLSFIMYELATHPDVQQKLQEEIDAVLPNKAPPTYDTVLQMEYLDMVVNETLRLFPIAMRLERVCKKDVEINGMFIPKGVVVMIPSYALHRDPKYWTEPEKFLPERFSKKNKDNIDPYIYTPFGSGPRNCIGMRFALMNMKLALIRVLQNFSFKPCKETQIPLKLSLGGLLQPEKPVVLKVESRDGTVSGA
recombinant human CYP3A5, sequence (P20815 whole entry): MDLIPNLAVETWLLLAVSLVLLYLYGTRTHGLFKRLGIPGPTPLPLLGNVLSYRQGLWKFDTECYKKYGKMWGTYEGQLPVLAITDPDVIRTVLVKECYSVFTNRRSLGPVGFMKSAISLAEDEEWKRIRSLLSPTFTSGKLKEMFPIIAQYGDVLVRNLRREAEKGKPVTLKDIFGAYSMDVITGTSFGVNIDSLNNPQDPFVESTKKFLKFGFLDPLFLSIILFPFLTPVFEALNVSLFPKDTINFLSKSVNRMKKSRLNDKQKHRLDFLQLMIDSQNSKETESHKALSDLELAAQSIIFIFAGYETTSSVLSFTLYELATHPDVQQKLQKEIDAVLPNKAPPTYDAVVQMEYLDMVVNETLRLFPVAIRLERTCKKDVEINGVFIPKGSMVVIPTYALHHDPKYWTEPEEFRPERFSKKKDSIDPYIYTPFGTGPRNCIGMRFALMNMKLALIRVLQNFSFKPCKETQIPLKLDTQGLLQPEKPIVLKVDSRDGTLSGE
recombinant human CYP2D6, sequence (P10635 whole entry): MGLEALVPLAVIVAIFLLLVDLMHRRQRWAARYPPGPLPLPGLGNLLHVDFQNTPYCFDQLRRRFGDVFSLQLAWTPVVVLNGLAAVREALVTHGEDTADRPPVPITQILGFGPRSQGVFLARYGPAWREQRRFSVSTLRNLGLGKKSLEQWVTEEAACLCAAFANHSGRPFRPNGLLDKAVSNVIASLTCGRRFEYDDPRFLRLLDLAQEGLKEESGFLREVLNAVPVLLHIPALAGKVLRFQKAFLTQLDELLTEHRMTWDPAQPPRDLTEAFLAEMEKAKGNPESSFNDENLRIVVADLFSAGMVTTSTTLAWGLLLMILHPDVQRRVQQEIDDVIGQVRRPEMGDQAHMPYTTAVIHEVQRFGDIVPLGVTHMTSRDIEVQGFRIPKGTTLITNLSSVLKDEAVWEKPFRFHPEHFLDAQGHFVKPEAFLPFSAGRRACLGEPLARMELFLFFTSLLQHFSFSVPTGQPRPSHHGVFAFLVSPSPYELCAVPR
recombinant human CYP3A4, sequence (P08684 whole entry): as the sequence (P08684 whole entry) above
recombinant human CYP2C19, sequence (P33261 whole entry): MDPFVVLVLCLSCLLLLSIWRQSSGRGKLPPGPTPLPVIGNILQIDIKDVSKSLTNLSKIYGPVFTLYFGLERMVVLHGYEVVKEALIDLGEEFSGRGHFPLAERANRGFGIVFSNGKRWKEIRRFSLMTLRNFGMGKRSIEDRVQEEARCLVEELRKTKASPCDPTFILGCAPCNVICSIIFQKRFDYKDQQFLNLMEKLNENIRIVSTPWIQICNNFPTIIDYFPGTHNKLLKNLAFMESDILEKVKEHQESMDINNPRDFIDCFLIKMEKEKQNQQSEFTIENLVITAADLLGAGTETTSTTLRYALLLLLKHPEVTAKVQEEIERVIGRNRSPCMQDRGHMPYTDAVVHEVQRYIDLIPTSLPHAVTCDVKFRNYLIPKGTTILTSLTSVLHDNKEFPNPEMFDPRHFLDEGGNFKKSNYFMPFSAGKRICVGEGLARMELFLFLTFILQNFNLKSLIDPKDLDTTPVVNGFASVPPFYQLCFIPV

Compound: C[C@@H](c1ccc2nccn2c1)n1nnc2ncc(-c3cnn(C)c3)nc21 [Savolitinib]
free in normal plasma [1]: 29% | Papp at 2 h, 10 µM [2]: 53.7 ×10⁻⁶ cm/s | microsomal CLint at 1 µM ([3]; human liver microsomes + NADPH, pH 7.4): 9.8 µL/min/mg | CLint scaled at 1 µM ([3]; human liver microsomes, Fig. 4a,d): 9.9 mL/min/kg | hepatocyte CLint at 1 µM (in vitro): 1 µL/min/1e6 cells | CLint scaled at 1 µM (in vitro): 2.98 mL/min/kg | free savolitinib [4]: 17% | microsomal CLint at 1 µM ([5]; human liver microsomes + NADH): 1.6 µL/min/mg | CLint scaled at 1 µM ([5]; human liver microsomes): 1.62 mL/min/kg | turnover (metabolite formation or disappearance of parent) (CYP1A2-Cytb5R): no detectable turnover | Percentage savolitinib remaining (recombinant CYP3A4-POR): 1.366% and 5.612% and 4.281% | fu_HLM [6]: 0.935 | fraction unbound at 4 h, 1 µM ([6]; human, human liver microsomes, pH 7.4): 0.935 | oxidation by aldehyde oxidase, share of the dose [7]: 19 % of the dose | oxidation/hydrolysis on the imidazopyridine moiety, share of the dose [7]: 16 % of the dose | logD [8]: 1.81 | % contribution (recombinant human CYP1A2; CYP1A2, inter-system extrapolation factors): 1.6% | CLint (recombinant human CYP1A2; CYP1A2, only two experiments measurable): 0.0386 µL/min/pmol CYP | CLint (recombinant human CYP2D6; CYP2D6, average of three): 0.309 ± 0.0010 µL/min/pmol CYP | % contribution (recombinant human CYP2D6; CYP2D6, inter-system extrapolation factors): 1.8% | CLint (recombinant human CYP3A4; CYP3A4, average of three): 0.489 ± 0.0278 µL/min/pmol CYP | % contribution (recombinant human CYP3A4; CYP3A4, inter-system extrapolation factors): 83% | % contribution (recombinant human CYP2A6; CYP2A6, inter-system extrapolation factors): 0.2% | CLint (recombinant human CYP2A6; CYP2A6, only one experiment measurable): 0.0148 µL/min/pmol CYP | % contribution (recombinant human CYP3A5; CYP3A5, inter-system extrapolation factors): 12% | CLint (recombinant human CYP3A5; CYP3A5, only two experiments measurable): 0.0939 µL/min/pmol CYP | % contribution [9]: 1.9% | fu_ratHH (rat hepatocytes): 0.847 | fraction unbound at 4 h, 1 µM [10]: 0.847

Papp at 2 h, 10 µM [2]: 60.7 ×10⁻⁶ cm/s | CLint scaled at 1 µM ([3]; microsomes): 4.16 mL/min/kg | hepatocyte CLint at 1 µM (in vitro): 2.69 µL/min/1e6 cells | CLint scaled at 1 µM (in vitro): 8.57 mL/min/kg | CLint scaled at 1 µM ([5]; microsomes): 2.83 mL/min/kg | fu_HLM [6]: 1 | logD (physchem): 0.902 | fu_ratHH (rat hepatocytes): 0.791
Compound: CC(=O)CC(c1ccccc1)c1c(O)c2ccccc2oc1=O (stereo not shown) [Warfarin]

From PMC12592420, “A mismatch in enzyme-redox partnerships underlies divergent cytochrome P450 activities between human hepatocytes and microsomes” (Communications Biology, 2025)
